Active and inactive are the calls of the source. Cut-off read from the data, not from the text of the source, for most assays here: actives have a measured Kd and inactives only a lower limit.
Assays:
Activin receptor type-1B = biological target: T1, Activin receptor type-1B (Homo sapiens, UniProt P36896)
T1 sequence (P36896 whole entry): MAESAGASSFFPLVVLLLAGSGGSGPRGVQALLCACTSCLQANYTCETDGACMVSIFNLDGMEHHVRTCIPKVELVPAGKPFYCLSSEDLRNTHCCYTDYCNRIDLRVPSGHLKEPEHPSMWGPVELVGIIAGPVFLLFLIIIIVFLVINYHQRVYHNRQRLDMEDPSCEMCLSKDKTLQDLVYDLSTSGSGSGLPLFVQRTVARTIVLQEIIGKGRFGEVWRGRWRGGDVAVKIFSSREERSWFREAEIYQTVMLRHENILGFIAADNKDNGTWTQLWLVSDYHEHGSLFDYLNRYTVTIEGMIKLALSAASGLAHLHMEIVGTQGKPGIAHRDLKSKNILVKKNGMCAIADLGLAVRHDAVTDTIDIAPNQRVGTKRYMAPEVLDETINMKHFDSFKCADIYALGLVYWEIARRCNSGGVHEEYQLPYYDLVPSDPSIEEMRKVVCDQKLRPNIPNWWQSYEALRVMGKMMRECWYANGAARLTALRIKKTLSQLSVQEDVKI

[1] = biological target: Cyclin-dependent kinase 7 (Homo sapiens, UniProt P50613)
[2] = biological target: Casein kinase I isoform epsilon (Homo sapiens, UniProt P49674)
[3] = biological target: T2, Serine/threonine-protein kinase ICK (Homo sapiens, UniProt Q9UPZ9)
T2 sequence (Q9UPZ9 whole entry): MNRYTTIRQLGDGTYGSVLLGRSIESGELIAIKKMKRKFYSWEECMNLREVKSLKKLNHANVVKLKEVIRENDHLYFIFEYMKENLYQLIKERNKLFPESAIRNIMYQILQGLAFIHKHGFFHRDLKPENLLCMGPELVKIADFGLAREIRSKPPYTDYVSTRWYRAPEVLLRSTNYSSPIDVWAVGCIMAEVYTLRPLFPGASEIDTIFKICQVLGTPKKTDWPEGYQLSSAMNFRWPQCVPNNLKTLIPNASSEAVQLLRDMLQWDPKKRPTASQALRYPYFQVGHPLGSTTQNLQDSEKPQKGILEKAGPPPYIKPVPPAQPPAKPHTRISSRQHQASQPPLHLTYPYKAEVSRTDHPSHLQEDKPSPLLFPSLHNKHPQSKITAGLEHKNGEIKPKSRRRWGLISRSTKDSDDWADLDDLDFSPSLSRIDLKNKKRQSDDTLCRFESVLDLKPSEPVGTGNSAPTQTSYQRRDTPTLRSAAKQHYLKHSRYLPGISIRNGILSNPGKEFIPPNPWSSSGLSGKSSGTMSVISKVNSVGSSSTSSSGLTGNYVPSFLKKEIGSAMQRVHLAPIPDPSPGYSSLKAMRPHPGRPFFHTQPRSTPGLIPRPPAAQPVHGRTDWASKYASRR

[4] = biological target: T3, Dual specificity mitogen-activated protein kinase kinase 5 (Homo sapiens, UniProt Q13163)
T3 sequence (Q13163 whole entry): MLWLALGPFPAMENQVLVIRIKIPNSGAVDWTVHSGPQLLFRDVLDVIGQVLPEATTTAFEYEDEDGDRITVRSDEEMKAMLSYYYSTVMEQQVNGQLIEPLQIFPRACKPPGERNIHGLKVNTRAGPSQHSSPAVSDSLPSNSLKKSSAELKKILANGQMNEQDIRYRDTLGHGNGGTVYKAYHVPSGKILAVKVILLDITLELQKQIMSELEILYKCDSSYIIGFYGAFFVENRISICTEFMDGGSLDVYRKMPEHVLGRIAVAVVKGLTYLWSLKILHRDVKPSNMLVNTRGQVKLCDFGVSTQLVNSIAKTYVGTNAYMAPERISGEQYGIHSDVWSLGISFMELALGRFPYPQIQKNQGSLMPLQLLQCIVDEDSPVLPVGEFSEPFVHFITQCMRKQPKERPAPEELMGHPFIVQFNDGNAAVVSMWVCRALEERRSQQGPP

[5] = biological target: T4, Mitogen-activated protein kinase kinase kinase 2 (Homo sapiens, UniProt Q9Y2U5)
T4 sequence (Q9Y2U5 whole entry): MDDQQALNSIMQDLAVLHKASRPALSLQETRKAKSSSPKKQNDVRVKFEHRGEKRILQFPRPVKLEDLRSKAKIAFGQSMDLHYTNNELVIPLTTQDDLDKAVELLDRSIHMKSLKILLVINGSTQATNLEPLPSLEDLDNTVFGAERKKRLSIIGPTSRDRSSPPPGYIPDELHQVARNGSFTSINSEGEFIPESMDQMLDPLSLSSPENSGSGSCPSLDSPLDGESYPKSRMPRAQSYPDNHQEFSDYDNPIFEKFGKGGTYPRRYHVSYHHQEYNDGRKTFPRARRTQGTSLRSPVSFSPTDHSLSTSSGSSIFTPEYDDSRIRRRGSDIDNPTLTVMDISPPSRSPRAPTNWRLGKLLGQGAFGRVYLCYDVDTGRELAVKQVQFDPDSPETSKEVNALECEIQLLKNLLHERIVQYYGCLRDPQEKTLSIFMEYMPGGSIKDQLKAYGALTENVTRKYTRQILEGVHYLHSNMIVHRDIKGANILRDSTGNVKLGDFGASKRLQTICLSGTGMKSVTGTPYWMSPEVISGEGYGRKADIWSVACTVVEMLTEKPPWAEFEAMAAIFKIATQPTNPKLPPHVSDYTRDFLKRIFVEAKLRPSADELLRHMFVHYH

[6] = biological target: GTP-binding nuclear protein Ran (Homo sapiens, UniProt P62826)
[7] = biological target: Ribosomal protein S6 kinase beta-1 (Homo sapiens, UniProt P23443)
ADP/ATP translocase 3 = biological target: T5, ADP/ATP translocase 3 (Homo sapiens, UniProt P12236)
T5 sequence (P12236 whole entry): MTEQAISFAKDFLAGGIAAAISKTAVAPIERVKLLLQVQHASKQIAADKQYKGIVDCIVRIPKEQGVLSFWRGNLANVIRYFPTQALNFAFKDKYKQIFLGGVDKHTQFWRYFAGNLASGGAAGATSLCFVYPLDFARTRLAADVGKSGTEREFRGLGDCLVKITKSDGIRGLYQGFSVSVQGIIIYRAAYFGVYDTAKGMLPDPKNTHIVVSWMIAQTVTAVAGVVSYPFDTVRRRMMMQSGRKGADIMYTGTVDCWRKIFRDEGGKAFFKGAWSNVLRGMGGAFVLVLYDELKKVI

[8] = biological target: Structural maintenance of chromosomes protein 2 (Homo sapiens, UniProt O95347)
Note: in the data inactive means no Kd found up to 30 µM.

Sequence of Casein kinase I isoform epsilon (P49674 whole entry, canonical isoform): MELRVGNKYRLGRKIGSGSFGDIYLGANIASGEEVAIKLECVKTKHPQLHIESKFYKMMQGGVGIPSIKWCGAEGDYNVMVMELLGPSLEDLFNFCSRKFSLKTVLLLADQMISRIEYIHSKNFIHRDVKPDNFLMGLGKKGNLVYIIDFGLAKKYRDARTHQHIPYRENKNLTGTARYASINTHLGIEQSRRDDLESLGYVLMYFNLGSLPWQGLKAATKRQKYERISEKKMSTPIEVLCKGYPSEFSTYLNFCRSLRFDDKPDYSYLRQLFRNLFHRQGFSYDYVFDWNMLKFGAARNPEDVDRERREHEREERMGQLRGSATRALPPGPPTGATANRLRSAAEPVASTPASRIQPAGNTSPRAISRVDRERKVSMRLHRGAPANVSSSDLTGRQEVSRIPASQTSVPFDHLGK
Sequence of Ribosomal protein S6 kinase beta-1 (P23443 whole entry): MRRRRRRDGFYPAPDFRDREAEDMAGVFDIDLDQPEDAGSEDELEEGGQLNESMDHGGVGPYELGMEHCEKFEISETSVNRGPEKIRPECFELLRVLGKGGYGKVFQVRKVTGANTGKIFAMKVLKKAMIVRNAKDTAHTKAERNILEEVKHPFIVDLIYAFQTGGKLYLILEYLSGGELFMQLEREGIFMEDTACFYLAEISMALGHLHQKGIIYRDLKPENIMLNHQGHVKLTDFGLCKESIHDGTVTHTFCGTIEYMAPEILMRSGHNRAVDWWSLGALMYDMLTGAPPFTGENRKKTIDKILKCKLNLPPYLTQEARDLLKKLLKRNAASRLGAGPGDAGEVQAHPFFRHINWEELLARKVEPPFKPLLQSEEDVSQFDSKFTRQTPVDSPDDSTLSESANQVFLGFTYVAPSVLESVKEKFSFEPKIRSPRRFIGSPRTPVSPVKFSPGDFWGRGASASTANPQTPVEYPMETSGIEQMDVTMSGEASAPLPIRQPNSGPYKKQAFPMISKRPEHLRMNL
Sequence of Structural maintenance of chromosomes protein 2 (O95347 whole entry): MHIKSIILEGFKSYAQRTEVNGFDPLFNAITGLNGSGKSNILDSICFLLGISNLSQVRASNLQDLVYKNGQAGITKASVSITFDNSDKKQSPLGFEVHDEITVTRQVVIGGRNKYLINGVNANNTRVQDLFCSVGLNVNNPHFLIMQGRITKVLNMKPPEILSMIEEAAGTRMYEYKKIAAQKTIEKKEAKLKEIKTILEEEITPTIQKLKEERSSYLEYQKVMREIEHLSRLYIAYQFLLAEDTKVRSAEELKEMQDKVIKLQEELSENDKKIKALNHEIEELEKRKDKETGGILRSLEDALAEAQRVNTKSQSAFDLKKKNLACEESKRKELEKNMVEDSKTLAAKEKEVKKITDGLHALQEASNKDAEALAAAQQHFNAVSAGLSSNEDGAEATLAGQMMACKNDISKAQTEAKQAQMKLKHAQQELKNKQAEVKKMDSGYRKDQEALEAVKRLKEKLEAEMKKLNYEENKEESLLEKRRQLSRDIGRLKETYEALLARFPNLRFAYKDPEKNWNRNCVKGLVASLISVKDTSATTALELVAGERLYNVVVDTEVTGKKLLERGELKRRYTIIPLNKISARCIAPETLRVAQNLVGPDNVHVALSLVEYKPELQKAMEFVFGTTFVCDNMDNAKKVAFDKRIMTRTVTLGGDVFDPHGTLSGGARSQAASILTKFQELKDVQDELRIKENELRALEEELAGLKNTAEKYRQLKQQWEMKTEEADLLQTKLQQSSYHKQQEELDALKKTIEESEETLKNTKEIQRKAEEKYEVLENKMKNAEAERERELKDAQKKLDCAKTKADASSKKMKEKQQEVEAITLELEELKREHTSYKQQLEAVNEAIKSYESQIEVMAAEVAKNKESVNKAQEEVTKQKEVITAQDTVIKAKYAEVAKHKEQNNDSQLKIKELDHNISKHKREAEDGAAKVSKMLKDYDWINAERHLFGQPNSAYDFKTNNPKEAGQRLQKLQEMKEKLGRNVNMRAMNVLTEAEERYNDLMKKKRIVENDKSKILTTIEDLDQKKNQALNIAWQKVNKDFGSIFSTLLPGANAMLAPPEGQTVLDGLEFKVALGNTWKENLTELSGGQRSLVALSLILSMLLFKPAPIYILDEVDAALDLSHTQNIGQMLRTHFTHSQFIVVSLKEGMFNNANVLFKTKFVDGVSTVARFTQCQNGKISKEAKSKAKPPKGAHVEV
Sequence of Cyclin-dependent kinase 7 (P50613 whole entry, canonical isoform): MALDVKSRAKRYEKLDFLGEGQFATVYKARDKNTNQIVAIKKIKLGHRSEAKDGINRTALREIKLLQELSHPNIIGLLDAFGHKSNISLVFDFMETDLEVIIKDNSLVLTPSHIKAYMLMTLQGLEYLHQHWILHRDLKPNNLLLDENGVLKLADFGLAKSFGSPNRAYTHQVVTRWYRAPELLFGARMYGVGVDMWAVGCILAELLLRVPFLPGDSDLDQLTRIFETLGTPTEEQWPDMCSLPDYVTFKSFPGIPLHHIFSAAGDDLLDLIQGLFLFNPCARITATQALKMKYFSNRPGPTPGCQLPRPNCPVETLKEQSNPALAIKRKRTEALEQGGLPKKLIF

SMILES	Kd (Activin receptor type-1B)	Kd [1]	Kd [2]	Kd [3]	Kd [4]	Kd [5]	Kd [6]	Kd [7]	Kd (ADP/ATP translocase 3)	Kd [8]
CCS(=O)(=O)N1CC(CC#N)(n2cc(-c3ncnc4[nH]ccc34)cn2)C1 [BARICITINIB]	> 30 µM (inactive)	> 30 µM (inactive)	> 30 µM (inactive)	> 30 µM (inactive)	> 30 µM (inactive)	> 30 µM (inactive)	> 30 µM (inactive)	> 30 µM (inactive)	> 30 µM (inactive)	> 30 µM (inactive)
CN1N=C(N)c2cn([C@@H]3O[C@H](COP(=O)(O)O)[C@@H](O)[C@H]3O)c3ncnc1c23 [TRICIRIBINE PHOSPHATE]	> 30 µM (inactive)	> 30 µM (inactive)	> 30 µM (inactive)	> 30 µM (inactive)	> 30 µM (inactive)	> 30 µM (inactive)	> 30 µM (inactive)	> 30 µM (inactive)	> 30 µM (inactive)	> 30 µM (inactive)
CNC(=O)c1cc(Oc2ccc(NC(=O)Nc3ccc(Cl)c(C(F)(F)F)c3)c(F)c2)ccn1 [REGORAFENIB]	> 30 µM (inactive)	> 30 µM (inactive)	> 30 µM (inactive)	> 30 µM (inactive)	> 30 µM (inactive)	> 30 µM (inactive)	> 30 µM (inactive)	> 30 µM (inactive)	> 30 µM (inactive)	> 30 µM (inactive)
CNS(=O)(=O)Nc1nccc(Cc2c(C)c3ccc(Oc4ncccn4)cc3oc2=O)c1F [AVUTOMETINIB]	> 30 µM (inactive)	> 30 µM (inactive)	> 30 µM (inactive)	> 30 µM (inactive)	2 µM (active)	> 30 µM (inactive)	> 30 µM (inactive)	> 30 µM (inactive)	> 30 µM (inactive)	> 30 µM (inactive)
CCCS(=O)(=O)Nc1ccc(F)c(C(=O)c2c[nH]c3ncc(-c4ccc(Cl)cc4)cc23)c1F [VEMURAFENIB]	> 30 µM (inactive)	> 30 µM (inactive)	> 30 µM (inactive)	> 30 µM (inactive)	0.734 µM (active)	> 30 µM (inactive)	> 30 µM (inactive)	> 30 µM (inactive)	> 30 µM (inactive)	> 30 µM (inactive)
Cc1cc2c(F)c(Oc3ncnn4cc(OC[C@@H](C)OC(=O)[C@H](C)N)c(C)c34)ccc2[nH]1 [BRIVANIB ALANINATE]	> 30 µM (inactive)	> 30 µM (inactive)	> 30 µM (inactive)	> 30 µM (inactive)	> 30 µM (inactive)	> 30 µM (inactive)	> 30 µM (inactive)	> 30 µM (inactive)	> 30 µM (inactive)	> 30 µM (inactive)
Cc1ccc(S(=O)(=O)Nc2nc3ccccc3nc2Nc2ccc3nsnc3c2)cc1	> 30 µM (inactive)	> 30 µM (inactive)	> 30 µM (inactive)	> 30 µM (inactive)	> 30 µM (inactive)	> 30 µM (inactive)	> 30 µM (inactive)	> 30 µM (inactive)	> 30 µM (inactive)	> 30 µM (inactive)
C=CC(=O)N1CCC(Oc2cc3c(Nc4ccc(Cl)c(Cl)c4F)ncnc3cc2OC)CC1 [POZIOTINIB]	> 30 µM (inactive)	> 30 µM (inactive)	> 30 µM (inactive)	> 30 µM (inactive)	> 30 µM (inactive)	> 30 µM (inactive)	> 30 µM (inactive)	> 30 µM (inactive)	> 30 µM (inactive)	> 30 µM (inactive)
CCn1c(=O)c(-c2cc[nH]n2)cc2c(C)nc(N)nc21 [VOXTALISIB]	> 30 µM (inactive)	> 30 µM (inactive)	> 30 µM (inactive)	> 30 µM (inactive)	> 30 µM (inactive)	> 30 µM (inactive)	> 30 µM (inactive)	> 30 µM (inactive)	> 30 µM (inactive)	> 30 µM (inactive)
CC(=O)Nc1cccc(-n2c(=O)n(C3CC3)c(=O)c3c(Nc4ccc(I)cc4F)n(C)c(=O)c(C)c32)c1 [TRAMETINIB]	> 30 µM (inactive)	> 30 µM (inactive)	> 30 µM (inactive)	> 30 µM (inactive)	> 30 µM (inactive)	> 30 µM (inactive)	> 30 µM (inactive)	> 30 µM (inactive)	> 30 µM (inactive)	> 30 µM (inactive)

More lines, now with the values ahead:

Kd (Activin receptor type-1B)	Kd [1]	Kd [2]	Kd [3]	Kd [4]	Kd [5]	Kd [6]	Kd [7]	Kd (ADP/ATP translocase 3)	Kd [8]	SMILES
> 30 µM (inactive)	> 30 µM (inactive)	> 30 µM (inactive)	> 30 µM (inactive)	> 30 µM (inactive)	> 30 µM (inactive)	> 30 µM (inactive)	> 30 µM (inactive)	> 30 µM (inactive)	> 30 µM (inactive)	C[C@@H](Nc1cc(F)cc(F)c1)c1cc(C(=O)N(C)C)cc2c(=O)cc(N3CCOCC3)oc12 [AZD-8186]
> 30 µM (inactive)	> 30 µM (inactive)	> 30 µM (inactive)	> 30 µM (inactive)	> 30 µM (inactive)	> 30 µM (inactive)	> 30 µM (inactive)	> 30 µM (inactive)	> 30 µM (inactive)	> 30 µM (inactive)	Cc1cc([C@@H](C)Nc2ccccc2C(=O)O)c2nc(N3CCOCC3)cc(=O)n2c1 [AZD-6482]
> 30 µM (inactive)	> 30 µM (inactive)	> 30 µM (inactive)	> 30 µM (inactive)	> 30 µM (inactive)	> 30 µM (inactive)	> 30 µM (inactive)	> 30 µM (inactive)	> 30 µM (inactive)	> 30 µM (inactive)	O=C(Nc1ccc(-c2ccnc(Nc3ccc(N4CCOCC4)cc3)n2)cc1)C1CCCN1 (stereo not given) [XL-019]
> 30 µM (inactive)	> 30 µM (inactive)	> 30 µM (inactive)	> 30 µM (inactive)	> 30 µM (inactive)	> 30 µM (inactive)	> 30 µM (inactive)	> 30 µM (inactive)	> 30 µM (inactive)	> 30 µM (inactive)	COc1cc(N2CCC(N3CCN(C)CC3)CC2)ccc1Nc1ncnc(Nc2ccccc2S(=O)(=O)C(C)C)n1 [ASP-3026]
